Like-named read-outs stand apart in the source and are kept apart here.
Experiments:
[1] = tested on: γ-secretase, NICD generation; set-up: method as in PMID 16236717; conditions: 50 nM; cited from earlier work
[2] = tested on: γ-secretase, AICD generation; set-up: method as in PMID 16236717; conditions: 100 nM; cited from earlier work
γ-secretase = conditions: read-out: IC50 for de novo Aβ and AICD generation in vitro; cited from earlier work
brain Aβ = tested on: brain Aβ; set-up: method as in PMID 11145990; conditions: transgenic mouse, human familial AD linked V717F APP; cited from earlier work
zebrafish embryos = tested on: zebrafish embryos; set-up: method as in PMID 12101103; conditions: treatment at late blastula stage; cited from earlier work
[3] = target: T1, γ-secretase cleavage of chimeric APP-α-NOTCH (Homo sapiens, UniProt P49768); test: Nβ* ELISA from HEK293 cells expressing APP-α-Notch; type: cell-based
T1 construct: endogenous in cells; host or cells: HEK293 transiently transfected with APP-α-Notch
Excerpt: (§1) Two cDNA constructs expressing chimeric APP and Notch were previously reported to generate chimeric "Notch-Aβ-like" (Nβ*) peptide. One construct has its transmembrane domain (TMD) replaced by the Notch TMD (APP-m-NOTCH) and the other with the juxtamembrane portion of the APP ectodomain (the α-secretase cleavage region) replaced by the corresponding sequence in Notch (APP-α-NOTCH). Taking advantage of different combinations of ELISA antibodies (see Methods), effects of cpd E on the generation of Aβ and Nβ* peptides from these chimeric APP-Notch substrates were quantified by ELISA.
(§2) Individual construct APP, APP-α-Notch or APP-m-Notch was transiently transfected into HEK293 cells. These chimeric protein expressing cells were treated with cpd E, and the levels of Aβ and Nβ* were measured by ELISA. […] Similar results were obtained when m-Notch was expressed in HEK293 cells. At least two magnitude of difference was observed, with EC50 for cpd E was […], compared to EC50 for Nβ* at ~1 nM (Fig. 3B).
(§3) Figure 3 Generation of Aβ and Nβ* from chimeric APP-Notch expressing cells. […] Levels of Nβ* in the media from cells expressing APP-α-Notch (dotted line) and levels of Aβ from APP expressing cells (solid line) were determined by ELISA. […] Levels of Aβ (solid line) and Nβ* (dotted line) were determined by ELISA. […]

[4] = tested on: brain cortical γ-secretase; set-up: method as in PMID 15857627; conditions: guinea pig; cited from earlier work
NICD generation = tested on: NICD generation; set-up: method as in PMID 15319485; conditions: found as low as; read-out: IC50 for NICD generation in cultured cells; cited from earlier work
[5] = target: T2, γ-secretase cleavage of APP (Homo sapiens, UniProt P49768); test: Aβ ELISA from HEK293 cells transiently transfected with APP; type: cell-based
T2 construct: endogenous in cells; host or cells: HEK293 stably expressing Swedish mutant human APP695, transiently transfected with NotchΔE
Excerpt: as §1, §2, §3

[6] = target: T3, γ-secretase cleavage of chimeric APP-m-NOTCH (Homo sapiens, UniProt P49768); test: Nβ* ELISA from HEK293 cells expressing APP-m-Notch; type: cell-based
T3 construct: endogenous in cells; host or cells: HEK293 transiently transfected with APP-m-Notch
Excerpt: as §1, §2, §3

Aβ generation = tested on: Aβ generation; set-up: method as in PMID 10915801; conditions: found as low as; read-out: IC50 for Aβ generation in cultured cells; cited from earlier work

| Compound | inhibition of NICD generation in vitro [1] | inhibition of AICD generation in vitro [2] | IC50 (γ-secretase) [nM] | brain Aβ (brain Aβ) | zebrafish somitogenesis and neurogenesis (zebrafish embryos) | EC50 [3] [nM] | brain cortical γ-secretase activity [4] | plasma, CSF and brain Aβ levels [4] | IC50 (NICD generation) [nM] | EC50 ([5]; EC for inhibiting 50% of Aβ production, APP expressing HEK293, α-Notch experiment, Fig. 3A) [nM] | EC50 ([5]; HEK293, m-Notch experiment, Fig. 3B, read-out: EC50 for APP (Aβ)) [nM] | EC50 [6] [nM] | IC50 (Aβ generation) [nM] |
| --- | --- | --- | --- | --- | --- | --- | --- | --- | --- | --- | --- | --- | --- |
| C[C@H](NC(=O)Cc1cc(F)cc(F)c1)C(=O)N[C@H](C(=O)OC(C)(C)C)c1ccccc1 [DAPT, N-[N-(3,5-Difluorophenacetyl-L-alanyl)]-S-phenylglycine t-Butyl Ester] | partial inhibition | partial inhibition | 10 to 100 | dose-dependent, acute decrease in brain Aβ | caused defects in somitogenesis and neurogenesis | – | – | – | – | – | – | – | – |
| C[C@H](NC(=O)Cc1cc(F)cc(F)c1)C(=O)N[C@H]1N=C(c2ccccc2)c2ccccc2N(C)C1=O [cpd E, (S,S)-2-[2-(3,5-Difluorophenyl)-acetylamino]-N-(1-methyl-2-oxo-5-phenyl-2,3-dihydro-1H-benzo [e] [1,4]diazepin-3-yl)-propionamide] | – | – | – | – | – | ~8 | dose-dependent inhibition of brain cortical γ-secretase activity | decreases in plasma, CSF and brain Aβ levels | 1.7 | < 0.1 | ~0.03 | ~1 | 0.3 |

Reference: paper PMC2637266, “Quantification of gamma-secretase modulation differentiates inhibitor compound selectivity between two substrates Notch and amyloid precursor protein” (Molecular Brain, 2008)
